{
  "source": "patent US10568918B2",
  "about": "“Composition comprising chlorella extract for preventing or treating liver disease” (GANGNEUNG-WONGJU NATIONAL UNIVERSITY INDUSTRY ACADEMY …, priority 2011, dated 2020)",
  "key": {"[1]": {"tested_on": "liver injury-induced animal models", "test": "ALT, AST, γ-GT and LDH contents in blood serum of ethanol liver-injured animal model", "assay_type": "in vivo, SD rats", "conditions": "10 mg/kg in feed, 10 days", "protocol": "The chlorella ethanol extract (CH) was used. The CH was dissolved in ethanol, and mixed with AlN-76 diet to be a daily intake of 50 mg or 100 mg per kg of a test animal weight and supplied to the animal. Specific pathogen free male SD rats of 5-week-old were purchased from Orient Bio Inc. (Seongnam, South Korea). After inspection and adaptation for 1 week, healthy animals without weight loss were selected and used for the test. Test animals were bred under a condition of temperature: 23±3, relative humidity: 50±10%, air change rate: 10-15 times/hour, lighting time: 12 hours (08:00-20:00) and luminous intensity: 150-300 Lux. During adaptation period of 1 week, the test animals were freely fed with solid feed for test animal (Superfeed Co., Ltd., Wonju, South Korea) and drinking water. […] The feed intake was measured every two days, and body weight was measured every week from the day of starting the oral administration of ethanol (0 day) to the final day of the experiment. […] To analyze contents of ALT, AST, γ-GT and LDH in a blood serum isolated from the blood collected on the day of the autopsy, alanine aminotransferase (ALT), aspartate aminotransferase (AST), gamma-glutamyl transferase (γ-GT) and lactic dehydrogenase (LDH) were analyzed using a blood biochemistry analyzer (KoneLab 20, Thermo Fisher Scientific, Waltham, […])."}, "[2]": {"tested_on": "liver injury-induced animal models", "test": "Content of lipid peroxide in liver microsome of ethanol liver-injured animal model", "assay_type": "in vivo, SD rats", "conditions": "EtOH +, 10 mg/kg, mean ± SEM", "quoted_text": "1 g Liver tissue was homogenized in 0.25 M sucrose (pH 7.0). […] The content of the lipid peroxide was measured by a lipid peroxide measuring kit (BioAssay Systems, Hayward, Calif., USA), and the protein quantification was conducted by a method of Lowry et al. (Lowry O H et al., 1957, J Biol Chem 193: 265-276)."}, "[3]": {"tested_on": "liver injury-induced animal models", "test": "Contents of total lipid, triglyceride and total cholesterol in liver tissue of ethanol liver-injured animal model", "assay_type": "in vivo, SD rats", "conditions": "10 mg/kg", "quoted_text": "Specific pathogen free male SD rats of 5-week-old were purchased from Orient Bio Inc. (Seongnam, South Korea). After inspection and adaptation for 1 week, healthy animals without weight loss were selected and used for the test. Test animals were bred under a condition of temperature: 23±3, relative humidity: 50±10%, air change rate: 10-15 times/hour, lighting time: 12 hours (08:00-20:00) and luminous intensity: 150-300 Lux. During adaptation period of 1 week, the test animals were freely fed with solid feed for test animal (Superfeed Co., Ltd., Wonju, South Korea) and drinking water. After the adaptation period of 1 week, healthy animals were selected, and divided to 5 groups by randomized block design. […] Test feeds were prepared by mixing each test compounds to the feed to the daily feeding amount of 50 or 100 mg per 1 kg of test animal weight as described above, and fed. In order to induce the fatty liver by ethanol, 20% ethyl alcohol 5 g per kg (body weight) was orally administered twice a day (morning and afternoon) for 16 days. The feeds containing the test compounds were fed for 10 days after 17th day of the ethanol administration, and the ethanol was orally administered together with the feed continuously. During the test period, drinking water was freely supplied. The feed intake was measured every two days, and body weight was measured every week from the day of starting the oral administration of ethanol (0 day) to the final day of the experiment.\nTotal lipid content in the liver tissue was analyzed by homogenizing 1 g liver tissue in a saline 3 ml followed by homogenizing again with CM solution (Chloroform:Methanol=2:1) 9 ml. The homogenate was centrifuged at 3,000 rpm for 10 min, and the lower layer was collected and evaporated followed by measuring the total lipid content using a precision scale. The measured total lipid was dissolved in isopropanol, and the triglyceride content and the total choresterol content were measured by a quantitative analysis kit using an enzyme method (Asan Pharm. Co., Ltd., Hwaseong, South Korea)."}, "[4]": {"tested_on": "liver injury-induced animal models", "test": "SOD, CAT, GPx, ADH and ALDH activities in liver cytosol of ethanol liver-injured animal model", "assay_type": "in vivo, SD rats", "conditions": "10 mg/kg in feed, 10 days", "quoted_text": "After inspection and adaptation for 1 week, healthy animals without weight loss were selected and used for the test. Test animals were bred under a condition of temperature: 23±3, relative humidity: 50±10%, air change rate: 10-15 times/hour, lighting time: 12 hours (08:00-20:00) and luminous intensity: 150-300 Lux. During adaptation period of 1 week, the test animals were freely fed with solid feed for test animal (Superfeed Co., Ltd., Wonju, South Korea) and drinking water. After the adaptation period of 1 week, healthy animals were selected, and divided to 5 groups by randomized block design. […] Test feeds were prepared by mixing each test compounds to the feed to the daily feeding amount of 50 or 100 mg per 1 kg of test animal weight as described above, and fed. […] The feed intake was measured every two days, and body weight was measured every week from the day of starting the oral administration of ethanol (0 day) to the final day of the experiment.\n1 g liver tissue was homogenized with 0.25 M sucrose (pH 7.0). […] The activities of superoxide dismutase (SOD), catalase (CAT) and glutathione peroxidase (GPx) were measured using a kit of Cayman chemical company (Ann Arbor, Mich., USA). The activity of alcohol dehydrogenase (ADH) was measured by adding 0.2 M ethanol 10 μl, 0.05 M semicarbazide HCl 10 μl and 0.1 M NAD (in 0.01 M HCl) 10 μl to 0.1 M Tris-HCl buffer (pH 8.5) 160 μl followed by adding the cytosolic zymogen 10 μl thereto at 340 nm. […] The activity of acetaldehyde dehydrogenase (ALDH) was measured by adding 1 M KCl 10 μl, 0.1 M pyrazole 10 μl, 1 M 2-mercaptoethanol 10 μl, 0.1 M propione aldehyde 10 μl and 0.1 M NAD (in 0.01 M HCl) 10 μl to 0.2 M Tris-HCl buffer (pH 8.3) 150 μl followed by adding the cytosolic zymogen 10 μl at 340 nm, and the enzyme protein assay was conducted by a method of Lowry et al. (Lowry O H et al., 1957, J Biol Chem 193: 265-276)."}, "quinone reductase": {"tested_on": "quinone reductase", "test": "Quinone reductase activity induction in Hepa1c1c7 liver cancer cells", "assay_type": "cell-based, white rat", "conditions": "sulforaphane at 5 μM, 5 × 10^3 cell/wells", "protocol": "For the ethanol extract and the ingredients of the isolated fractions, the quinone reductase activity induction was analyzed. In order to measure the quinone reductase activity induction effect of the fractions obtained from the chlorella, the experiment was conducted using a liver cancer cell line (Hepa1c1c7) of a white rat.\nFirst of all, a-MEM (minimum essential medium)/10% FBS (fetal bovine serum) solution was mixed with a liver cell culture solution to make the cell number of 1×10^5 cells/Ml, and the resulting solution 100 μl was added to a 96-well plate followed by incubating for 24 hours under a condition of 5% CO2 and 37° C. […]\nThe protein solution 50 μl and reaction solution A (49 Ml 25 mM Tris buffer, 34 mg BSA, 0.34 Ml 1.5% tween-20 solution, 0.34 Ml co-enzyme solution, 100 unit glucose-6-phosphate dehydrogenase, 15 mg MTT, 50 μl 50 mM menadione) 200 μl were mixed together, and the absorbance increasing rate was measure at 610 nm using a microplate reader. The protein amount was measured at 595 nm using Bradford solution. […] The quinone reductase activity of the extract and the fraction was expressed as CD (the concentration of the sample where the quinone reductase activity of the sample-treated cell becomes twice)."}, "[5]": {"tested_on": "liver injury-induced animal models", "test": "Contents of triglyceride, total cholesterol and HDL-cholesterol in blood serum of ethanol liver-injured animal model", "assay_type": "in vivo, SD rats", "conditions": "EtOH +, 10 mg/kg, mean ± SEM", "protocol": "The chlorella ethanol extract (CH) was used. The CH was dissolved in ethanol, and mixed with AlN-76 diet to be a daily intake of 50 mg or 100 mg per kg of a test animal weight and supplied to the animal. Specific pathogen free male SD rats of 5-week-old were purchased from Orient Bio Inc. (Seongnam, South Korea). After inspection and adaptation for 1 week, healthy animals without weight loss were selected and used for the test. Test animals were bred under a condition of temperature: 23±3, relative humidity: 50±10%, air change rate: 10-15 times/hour, lighting time: 12 hours (08:00-20:00) and luminous intensity: 150-300 Lux. During adaptation period of 1 week, the test animals were freely fed with solid feed for test animal (Superfeed Co., Ltd., Wonju, South Korea) and drinking water. After the adaptation period of 1 week, healthy animals were selected, and divided to 5 groups by randomized block design. Namely, those were divided into a control group not treated with ethanol and the test material, a group orally administered with ethanol, a group orally administered with ethanol and fed with CH 50 mg/kg, a group orally administered with ethanol and fed with CH 100 mg/kg and a group orally administered with ethanol and fed with sulforaphane 10 mg/kg. The primary feed used in this experiment, AlN-76 was purchased from Research Diets, Inc. (New Brunswick, N.J., USA), and its composition is listed in Table 1. Test feeds were prepared by mixing each test compounds to the feed to the daily feeding amount of 50 or 100 mg per 1 kg of test animal weight as described above, and fed. […] The feeds containing the test compounds were fed for 10 days after 17th day of the ethanol administration, and the ethanol was orally administered together with the feed continuously. During the test period, drinking water was freely supplied. The feed intake was measured every two days, and body weight was measured every week from the day of starting the oral administration of ethanol (0 day) to the final day of the experiment. […]"}, "[6]": {"conditions": "did not show the significant difference"}},
  "note": "Several values for one entry are separate records, joined by “and”; a condition that tells them apart may be missing. Identical values can stand only once.",
  "data": [
    {"smiles": "C[S+]([O-])CCCCN=C=S", "note": "(centres unmarked) [Sulforaphane]", "values": [
      {"measurement": "serum γ-GT vs group orally administered with ethanol only", "setting": "[1]", "result": "did not show the significant difference"},
      {"measurement": "serum LDH content vs group orally administered with ethanol", "setting": "[1]; with the significant difference", "result": "decreased"},
      {"measurement": "Lipid peroxide (μM/mg protein)", "setting": "[2]", "result": 2.07, "unit": "μM/mg protein"},
      {"measurement": "total liver cholesterol contents vs group orally administered with ethanol", "setting": "[3]; showed the significant difference", "result": "decreased"},
      {"measurement": "Total cholesterol (mg/g liver)", "setting": "[3]; EtOH +, mean ± SEM", "result": 4.39, "unit": "mg/g liver"},
      {"measurement": "Total lipid (mg/g liver)", "setting": "[3]; EtOH +, mean ± SEM", "result": 48.26, "unit": "mg/g liver"},
      {"measurement": "Triglyceride (mg/g liver)", "setting": "[3]; EtOH +, mean ± SEM", "result": 13.28, "unit": "mg/g liver"},
      {"measurement": "liver cytosol SOD activity vs ethanol administration group", "setting": "[4]", "result": "increased"},
      {"measurement": "liver cytosol CAT activity vs ethanol administration group", "setting": "[4]; [6]", "result": "increased"},
      {"measurement": "liver cytosol GPx activity vs group orally administered with ethanol", "setting": "[4]; [6]", "result": "increased"},
      {"measurement": "CD (concentration of the sample where the quinone reductase activity of the sample-treated cell becomes twice)", "setting": "quinone reductase", "result": "1.94 µg/mL and 2.48 µg/mL and 2.07 µg/mL"},
      {"measurement": "HDL-cholesterol", "setting": "[5]", "result": 33.39, "unit": "mg/dL"},
      {"measurement": "Total cholesterol", "setting": "[5]", "result": 94.25, "unit": "mg/dL"},
      {"measurement": "Triglyceride", "setting": "[5]", "result": 126.11, "unit": "mg/dL"}
    ]}
  ]
}
